Article PMC3325965, “Structural Basis of the Chromodomain of Cbx3 Bound to Methylated Peptides from Histone H1 and G9a” (PLoS ONE, 2012)
Square brackets hold non-standard residues; d marks the D form. Peptide text beside a SMILES is read from it. Lys(Me3) = C[N+](C)(C)CCCC[C@H](N)C(=O)O; Lys(Me2) = CN(C)CCCC[C@H](N)C(=O)O; Lys(Me) = CNCCCC[C@H](N)C(=O)O

Target: T1, human Cbx3 chromodomain (Homo sapiens, UniProt Q13185)
T1 construct: The chromodomain of Cbx3 (29–86) was subcloned into a pET-28a-MHL vector; His tag (TEV-cleavable, pET-28a-MHL) (N, cleaved yes); made in house
Experiment: Isothermal titration calorimetry (ITC) of methylated peptides binding to Cbx3 chromodomain
Set-up: key to Kd peptide: N/B: No binding was detected
Settings: Cbx3 chromodomain (residues 29–86), 60 µl of peptide solution (1–2 mM) injected into cell with 40–100 mM protein, 20 mM Tris–HCl, pH 7.5, 150 mM NaCl, one-site binding model
Description: Chromodomain has been identified to be a methyl-lysine binding motif involved in transcription regulation, [28]. Many chromodomain-containing proteins, such as HP1 proteins and Polycomb group proteins, were reported to recognize methylated histone tails, [13], [17], [29]. Besides methylated histone H3K9, Cbx3, also known as HP1γ, can also bind to methylated Lys26 of histone H1 and methylated Lys185 of G9a, [22], [23]. To elucidate the binding affinity of Cbx3 chromodomain to these two methylated sites, isothermal titration calorimetry (ITC) assay was performed using histone H1K26 and G9aK185 peptides bearing different lysine methylation states as substrates. […] (Table 1).
Isothermal titration calorimetry measurements were performed as reported previously. Experiments were carried out by injecting 60 µl of peptide solution (1–2 mM) into a sample cell containing […] protein of Cbx3 chromodomain in 20 mM Tris–HCl, pH 7.5, 150 mM NaCl. The ITC measurements were fit to a one-site binding model using Origin Software (MicroCal Inc.)

T1 sequence (Q13185 29-86): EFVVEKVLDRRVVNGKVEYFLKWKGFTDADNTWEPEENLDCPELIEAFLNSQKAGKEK

Compound	Kd [µM]	Kd peptide	other results
CNCCCC[C@H](NC(=O)[C@H](CCCNC(=N)N)NC(=O)[C@H](C)NC(=O)[C@H](CCCNC(=N)N)NC(=O)[C@H](Cc1c[nH]cn1)NC(=O)[C@@H](NC(=O)[C@@H](N)CCCCN)C(C)C)C(=O)N[C@H](C(=O)N[C@@H](CCSC)C(=O)N[C@@H](CO)C(=O)N[C@@H](CCCCN)C(=O)N1CCC[C@H]1C(=O)O)[C@@H](C)O [G9a(179–190) me1] (H-KVHRAR[Lys(Me)]TMSKP-OH)	28	–	–
CSCC[C@H](NC(=O)[C@@H](NC(=O)[C@H](CCCCN(C)C)NC(=O)[C@H](CCCNC(=N)N)NC(=O)[C@H](C)NC(=O)[C@H](CCCNC(=N)N)NC(=O)[C@H](Cc1c[nH]cn1)NC(=O)[C@@H](NC(=O)[C@@H](N)CCCCN)C(C)C)[C@@H](C)O)C(=O)N[C@@H](CO)C(=O)N[C@@H](CCCCN)C(=O)N1CCC[C@H]1C(=O)O [G9a(179–190) me2] (H-KVHRAR[Lys(Me2)]TMSKP-OH)	9	–	–
CSCC[C@H](NC(=O)[C@@H](NC(=O)[C@H](CCCC[N+](C)(C)C)NC(=O)[C@H](CCCNC(=N)N)NC(=O)[C@H](C)NC(=O)[C@H](CCCNC(=N)N)NC(=O)[C@H](Cc1c[nH]cn1)NC(=O)[C@@H](NC(=O)[C@@H](N)CCCCN)C(C)C)[C@@H](C)O)C(=O)N[C@@H](CO)C(=O)N[C@@H](CCCCN)C(=O)N1CCC[C@H]1C(=O)O [G9a(179–190) me3] (H-KVHRAR[Lys(Me3)]TMSKP-OH)	14	–	–
KVHRARK^185TMSKP [G9a(179–190) unmodified, histone methyltransferase G9a peptide, residues 179–190, without modification]	–	N/B	Kd peptide (listed as G9aK185): did not exhibit detectable binding
TPVKKKARK^26SAG [H1.4(18–29) me1, histone H1.4 peptide, residues 18–29, mono-methylated at Lys26]	–	N/B	–
TPVKKKARK^26SAG [H1.4(18–29) unmodified, histone H1.4 peptide, residues 18–29, without modification]	–	N/B ^*	Kd peptide (listed as H1K26): did not exhibit detectable binding
